Among the test systems are A549; CCRF-CEM; DMS-114; DMS-273; EKVX; HCT-15; HL-60; HOP-18; KM-20L2; KM12; MOLT-4; NCI-H226; NCI-H23; OVCAR-8; SF-539; SK-MEL-2; SK-OV-3.
What all share (assay): inhibition of tumour cell growth, NCI panel, 48 h

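Following 48 hours of exposure in 96-well plates, responses at five concentrations were used to interpolate endpoints linearly. GI50 is the concentration that inhibits growth by half.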 Active and inactive are the calls of the source. No stated cut-off is given here; in the data, active = GI50 up to about 1.1 µM and inactive = higher. A value given as a limit tells only on which side of the number the result lay.

As for `N#CC1(C#N)C(C#N)(C#N)C12CCCCCC2`, the GI50 in the experiment with A549 was 14.7 µM (inactive); with CCRF-CEM, 1.85 µM (inactive); in the experiment on DMS-114, 21.1 µM (inactive); with DMS-273, 22.4 µM (inactive); with EKVX it was 17.3 µM (inactive); in the experiment on HCT-15 it was 8.41 µM. Besides, the GI50 in the experiment with HL-60 was 3.48 µM (inactive); in the experiment with HOP-18, 16.4 µM (inactive); in the experiment with KM-20L2, 16.6 µM (inactive); in the experiment with KM12, 14 µM (inactive); in the experiment with MOLT-4, 5.45 µM (inactive); in the experiment with NCI-H226, 20 µM (inactive). The GI50 in the experiment on NCI-H23 is 16 µM (inactive); in the experiment with OVCAR-8, 13.2 µM (inactive); in the experiment with SF-539 it was 13.6 µM (inactive); with SK-MEL-2 it was 13.2 µM (inactive); in the experiment with SK-OV-3, > 64.4 µM (inactive).
Regarding `O=C(/C=C/c1c(O)ccc2ccccc12)c1cccc2ccccc12`, the GI50 in the experiment on A549 is > 100 µM (inactive); with CCRF-CEM, 23.7 µM (inactive); in the experiment with DMS-114, > 59.7 µM (inactive); in the experiment with DMS-273 it was > 100 µM (inactive); in the experiment on EKVX it was > 100 µM (inactive); with HCT-15, > 58.7 µM. Also, the GI50 with HL-60 is > 43.8 µM (inactive); in the experiment on HOP-18, 58.6 µM (inactive); in the experiment on KM-20L2 it was > 100 µM (inactive); in the experiment with KM12, > 100 µM (inactive); in the experiment with MOLT-4, 51.5 µM (inactive); with NCI-H226, > 57.9 µM (inactive). For the same compound, the GI50 in the experiment on NCI-H23 was > 100 µM (inactive); in the experiment with OVCAR-8, > 100 µM (inactive); with SF-539, > 100 µM (inactive); with SK-MEL-2 it was > 95.1 µM (inactive); in the experiment on SK-OV-3, > 100 µM (inactive).
On to `COc1ccc(C2C3CCCC(C3=O)C(c3ccc(OC)cc3)N2N=O)cc1` (configuration not stated), for which the GI50 in the experiment on A549 is 34.7 µM (inactive); in the experiment with CCRF-CEM, 26.1 µM (inactive); in the experiment with DMS-114 it was 23.1 µM (inactive); with DMS-273, 23 µM (inactive); in the experiment on EKVX, 56.9 µM (inactive); with HCT-15, 36.9 µM. In addition, the GI50 was 25.2 µM (inactive) in the experiment with HL-60; 8.91 µM (inactive) with HOP-18; 30.7 µM (inactive) in the experiment with KM-20L2; 29.6 µM (inactive) in the experiment on KM12; 25.2 µM (inactive) in the experiment with MOLT-4; 23.3 µM (inactive) in the experiment on NCI-H226. The GI50 is 19.5 µM (inactive) in the experiment with NCI-H23; 37 µM (inactive) in the experiment on OVCAR-8; > 10 µM (inactive) in the experiment on SF-539; 20.5 µM (inactive) in the experiment on SK-MEL-2; 37.4 µM (inactive) in the experiment with SK-OV-3.
As to `CCOC(=O)C(=O)Nc1cc(Cl)ccc1Cl`, the GI50 with A549 is > 100 µM (inactive); in the experiment on CCRF-CEM, > 100 µM (inactive); with DMS-114 it was > 100 µM (inactive); in the experiment on DMS-273, > 100 µM (inactive); in the experiment on EKVX it was > 100 µM (inactive); in the experiment with HCT-15 it was > 100 µM. For the same compound, the GI50 in the experiment with HL-60, with HOP-18, with KM-20L2, in the experiment on KM12, with MOLT-4 and with NCI-H226 was > 100 µM (inactive) each time. The GI50 in the experiment on NCI-H23, in the experiment on OVCAR-8, in the experiment on SF-539, with SK-MEL-2 and in the experiment with SK-OV-3 was > 100 µM (inactive) throughout.
Regarding `CCCCCCCCCCCCCCCCCCC1=C(O)C(=O)C=C(OC)C1=O`, the GI50 was 46.8 µM (inactive) with A549; 21.7 µM (inactive) in the experiment on DMS-114; 55.2 µM (inactive) in the experiment with DMS-273; 41.7 µM (inactive) in the experiment on EKVX; 29.5 µM with HCT-15; 22.5 µM (inactive) with HL-60. Also, the GI50 with HOP-18 was 43 µM (inactive); in the experiment with KM-20L2, 42.9 µM (inactive); in the experiment on KM12, 35.2 µM (inactive); in the experiment with MOLT-4, 21.1 µM (inactive); with NCI-H226, 62.5 µM (inactive); with NCI-H23, 26 µM (inactive). Moreover, the GI50 in the experiment on OVCAR-8 was 32.4 µM (inactive); with SF-539, 45.1 µM (inactive); in the experiment with SK-MEL-2, 26.5 µM (inactive); in the experiment on SK-OV-3, > 100 µM (inactive).
Turning to `CCCCCCCC(=O)OC[C@@H](C[As](=O)(O)O)OC(=O)CCCCCCC`, the GI50 with A549 was 3.73 µM (inactive); in the experiment with CCRF-CEM, 1.88 µM (inactive); with DMS-114, 10.4 µM (inactive); in the experiment on DMS-273, 12.1 µM (inactive); in the experiment on EKVX, 26.5 µM (inactive); in the experiment with HCT-15 it was 10.1 µM. The GI50 was 2.98 µM (inactive) in the experiment with HL-60; 18.2 µM (inactive) in the experiment with HOP-18; 16.9 µM (inactive) with KM-20L2; 2.58 µM (inactive) in the experiment on MOLT-4; 6.58 µM (inactive) in the experiment with NCI-H226; 12.9 µM (inactive) in the experiment with NCI-H23. For the same compound, the GI50 in the experiment on OVCAR-8 is 13.5 µM (inactive); in the experiment on SF-539, 10.5 µM (inactive); with SK-OV-3 it was 14.6 µM (inactive).
In the case of `Cc1cc(C)nc(NS(=O)(=O)c2ccc(Nc3c4ccccc4nc4c(C(=O)Nc5ccc(S(=O)(=O)Nc6cc(C)on6)cc5)cccc34)cc2)n1`, the GI50 in the experiment on A549 was 34.7 µM (inactive); with DMS-114, 19.1 µM (inactive); with DMS-273 it was 23.8 µM (inactive); in the experiment with EKVX, 26.2 µM (inactive); with HCT-15, > 100 µM; with HL-60, 22.8 µM (inactive). Moreover, the GI50 was 20.4 µM (inactive) in the experiment with HOP-18; 21 µM (inactive) in the experiment on KM-20L2; 20 µM (inactive) with KM12; 24.8 µM (inactive) in the experiment with MOLT-4; 21 µM (inactive) in the experiment on NCI-H226; 22.1 µM (inactive) with NCI-H23. Besides, the GI50 in the experiment on OVCAR-8 was 18.4 µM (inactive); in the experiment on SF-539, 16 µM (inactive); in the experiment with SK-OV-3 it was 27.1 µM (inactive).
For the compound `CC1=CCC2(C#N)CCC1C2O` (configuration not stated), the GI50 in the experiment on A549 was > 100 µM (inactive); in the experiment with CCRF-CEM it was > 100 µM (inactive); with DMS-114 it was > 100 µM (inactive); in the experiment with DMS-273, 19.7 µM (inactive); in the experiment with EKVX it was > 100 µM (inactive); in the experiment with HCT-15, > 100 µM. Moreover, the GI50 in the experiment on HL-60 is > 100 µM (inactive); with HOP-18, > 100 µM (inactive); with KM-20L2, 39.4 µM (inactive); in the experiment on KM12, > 100 µM (inactive); in the experiment on MOLT-4, > 100 µM (inactive); with NCI-H226 it was > 100 µM (inactive). Moreover, the GI50 in the experiment on OVCAR-8, with SF-539, in the experiment with SK-MEL-2 and with SK-OV-3 was > 100 µM (inactive) throughout.
Regarding `C=CCCC(=O)CC(=O)OCc1ccccc1`, the GI50 in the experiment on A549 is > 100 µM (inactive); in the experiment with CCRF-CEM, > 100 µM (inactive); in the experiment with DMS-114, > 100 µM (inactive); in the experiment with DMS-273, > 100 µM (inactive); in the experiment on EKVX, > 100 µM (inactive); with HCT-15 it was > 100 µM. Moreover, the GI50 is > 100 µM (inactive) with HL-60; > 100 µM (inactive) with HOP-18; > 100 µM (inactive) in the experiment with KM-20L2; > 100 µM (inactive) with KM12; > 100 µM (inactive) with MOLT-4; 8.47 µM (inactive) with NCI-H23. Besides, the GI50 with OVCAR-8, in the experiment with SF-539, in the experiment on SK-MEL-2 and in the experiment with SK-OV-3 was > 100 µM (inactive) throughout.
Turning to `CCCCCCCC/C=C/CCCCCCCC(=O)N(O)C1CC(n2cc(C)c(=O)[nH]c2=O)OC1CO` (configuration not stated), the GI50 in the experiment on A549 is 19 µM (inactive); in the experiment on CCRF-CEM it was 4.22 µM (inactive); in the experiment with DMS-114, 4.41 µM (inactive); with DMS-273 it was 5.07 µM (inactive); in the experiment on HCT-15, 4.67 µM; in the experiment with HOP-18, 3.65 µM (inactive). In addition, the GI50 with KM-20L2 is 3.56 µM (inactive); with KM12, 11.3 µM (inactive); in the experiment with MOLT-4, 4.41 µM (inactive); in the experiment on NCI-H23, 10.6 µM (inactive); in the experiment on OVCAR-8, 11.4 µM (inactive); in the experiment on SF-539, 11.6 µM (inactive). Further, the GI50 was 13.7 µM (inactive) in the experiment with SK-MEL-2 and 10.3 µM (inactive) in the experiment on SK-OV-3.
Regarding `COc1ccccc1/N=N/c1c(-c2ccccc2)nn(C(=O)CC(=O)Nc2ccccc2Cl)c1-c1ccccc1`, the GI50 was > 100 µM (inactive) in the experiment on A549; 77.8 µM (inactive) in the experiment with CCRF-CEM; > 100 µM (inactive) in the experiment with DMS-114; > 100 µM (inactive) in the experiment with DMS-273; > 100 µM (inactive) in the experiment on EKVX; > 100 µM in the experiment on HCT-15. Also, the GI50 in the experiment on HL-60 is > 100 µM (inactive); in the experiment with HOP-18, > 100 µM (inactive); in the experiment with KM-20L2 it was > 100 µM (inactive); in the experiment with KM12, > 100 µM (inactive); with MOLT-4, 81.8 µM (inactive); with NCI-H226, > 100 µM (inactive). For the same compound, the GI50 with NCI-H23, in the experiment with OVCAR-8, with SF-539 and with SK-OV-3 was > 100 µM (inactive) each time.
As for `CC(C)[C@@H](C)CC[C@@H](C)C1CC=C2[C@@H]3CCC4C[C@@H](O[Si](C)(C)C(C)(C)C)CC[C@]4(C)C3CC[C@@]21C` (some centres not stated), the GI50 in the experiment with A549 was > 100 µM (inactive); with CCRF-CEM, > 100 µM (inactive); with DMS-114, > 100 µM (inactive); in the experiment with DMS-273 it was > 100 µM (inactive); with EKVX, > 100 µM (inactive); in the experiment with HCT-15 it was > 100 µM. Further, the GI50 in the experiment on HL-60, with HOP-18, in the experiment on KM-20L2, in the experiment with KM12, in the experiment with MOLT-4 and in the experiment on NCI-H226 was > 100 µM (inactive) throughout. In addition, the GI50 in the experiment on OVCAR-8, in the experiment with SF-539, in the experiment with SK-MEL-2 and in the experiment with SK-OV-3 was > 100 µM (inactive) in each case.

Source of the values: ChEMBL document CHEMBL1201862, “PubChem BioAssay data set” (2004).
